We go through ten compounds from patent US11999759B2, “Boronic acid derivatives and therapeutic uses thereof” (Qpex Biopharma, Inc., priority 2016, dated 2024).

By Ki is commonly meant the dissociation constant of the complex between target and ligand, obtained from inhibition or displacement. The half-life is how long it takes for the measured level to halve.

The target in one data set is CTX-M-14 (Escherichia coli, UniProt Q9L5C7). As to the kind of experiment: Inhibition of nitrocefin cleavage by purified CTX-M-14. The data set is classed as biochemical. Particulars: nitrocefin reporter substrate; 10 min preincubation at room temperature; read-out: Ki (CTX-M-14, NCF). The procedure:
(§1) Ki values of inhibition of purified class A, C and D enzymes were determined spectrophotometrically using nitrocefin as reporter substrate. Purified enzymes were mixed with various concentrations of inhibitors in reaction buffer and incubated for 10 min at room temperature. Nitrocefin was added and substrate cleavage profiles were recorded at 490 nm every 10 sec for 10 min.

The target of a further data set is KPC-2 (Klebsiella pneumoniae, UniProt Q9F663). Put plainly: Inhibition of nitrocefin cleavage by purified KPC-2. The data set is classed as biochemical. Particulars: nitrocefin reporter substrate; 10 min preincubation at room temperature; read-out: Ki (KPC-2, NCF). The procedure:
(§2) Ki values of inhibition of purified class A, C and D enzymes were determined spectrophotometrically using nitrocefin as reporter substrate. Purified enzymes were mixed with various concentrations of inhibitors in reaction buffer and incubated for 10 min at room temperature. Nitrocefin was added and substrate cleavage profiles were recorded at 490 nm every 10 sec for 10 min. These experiments confirmed that the described compounds are inhibitors with a broad-spectrum of activity towards various β-lactamases.

Another data set concerns the target Pa-AmpC (Pseudomonas aeruginosa, UniProt P24735). Put plainly: biochemical. The procedure: as §1
The target of a further data set is OXA-48 (Klebsiella pneumoniae, UniProt Q6XEC0). Put plainly: Inhibition of nitrocefin cleavage by purified OXA-48. Particulars: nitrocefin reporter substrate; 10 min preincubation at room temperature; read-out: Ki (OXA-48, NCF). The class given is biochemical. The procedure:
as §2

The next data set addresses OXA-23 (Acinetobacter baumannii, UniProt Q9L4P2). Put plainly: Inhibition of nitrocefin cleavage by purified OXA-23. The class given is biochemical. The note with it: nitrocefin reporter substrate; 10 min preincubation at room temperature; read-out: Ki (OXA-23, NCF). The procedure: as §2
For a further data set, the target named is VIM-1 (Pseudomonas aeruginosa, UniProt A0A0F7KYQ8). Put plainly: Inhibition of nitrocefin cleavage by purified VIM-1. The data set is classed as biochemical. Particulars: nitrocefin reporter substrate; 10 min preincubation at room temperature; read-out: Ki (VIM-1, NCF).
In the next data set the target is NDM-1 (Klebsiella pneumoniae, UniProt C7C422). As to the kind of experiment: Inhibition of imipenem cleavage by purified NDM-1. The data set is classed as biochemical. Particulars: imipenem reporter substrate; 37° C.; read-out: Ki (NDM-1, IMI). The procedure: Purified enzymes were mixed with various concentrations of inhibitors in reaction buffer and incubated for 10 min at room temperature. Imipenem was added and substrate cleavage profiles were recorded at 294 nm every 30 seconds for 30 minutes at 37° C.
Chain of NDM-1 (C7C422 29-270, looked up, species assumed): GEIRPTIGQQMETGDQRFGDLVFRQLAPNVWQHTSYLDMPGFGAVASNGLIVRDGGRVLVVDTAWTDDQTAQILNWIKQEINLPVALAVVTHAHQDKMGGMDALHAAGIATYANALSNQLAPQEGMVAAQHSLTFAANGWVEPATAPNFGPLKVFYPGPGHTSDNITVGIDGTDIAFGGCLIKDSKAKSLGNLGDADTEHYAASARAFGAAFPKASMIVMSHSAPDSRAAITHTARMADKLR

Another data set deals with IMP-1 (Serratia marcescens, UniProt P52699). Put plainly: Inhibition of imipenem cleavage by purified IMP-1. The class given is biochemical. Particulars: imipenem reporter substrate; 37° C.; read-out: Ki (IMP-1, IMI). The procedure:
Ki values of inhibition of purified class B enzymes NDM-1 and IMP-1 were determined spectrophotometrically using imipenem as reporter substrate. Purified enzymes were mixed with various concentrations of inhibitors in reaction buffer and incubated for 10 min at room temperature. Imipenem was added and substrate cleavage profiles were recorded at 294 nm every 30 seconds for 30 minutes at 37° C. These experiments further confirmed that the described compounds have the ability to inhibit carbapenemase activity of metallo-beta-lactamases.

Another data set has as its target P99 (Enterobacter cloacae, UniProt P05364). As to the kind of experiment: biochemical. Particulars: nitrocefin reporter substrate; 10 min preincubation at room temperature; read-out: Ki (P99, NCF). The procedure:
as §1

For data set [1], the system named is PAM1032/KPC-2 (overexpressed MexAB-OprM). Put plainly: Biapenem potentiation (MPC64) in PAM1032/KPC-2. The data set is classed as cell-based, Pseudomonas aeruginosa. On the set-up: PAM1032/KPC-2 Biapenem MPC64: unit not given here. The note with it: BLI potency to decrease biapenem MIC 64-fold, from 32 to 0.5 μg/ml; efflux proficient strain. The procedure: (§3) Efflux of BLIs from Pseudomonas aeruginosa by the MexAB-OprM efflux pump was also evaluated. The plasmid expressing the gene encoding KPC-2 was introduced into two strains of P. aeruginosa, PAM1032 and PAM1154 that overexpressed or lacked MexAB-OprM, respectively. Due to expression of KPC-2 both strains became resistant to biapenem. […] Potency of BLIs to potentiate biapenem in these strains was determined. […] The ratio of MPC64 values for each BLI in PAM1032/KPC-2 (efflux proficient) and PAM1154/KPC-2 (efflux deficient) was determined to generate the Efflux Index (EI) as shown in Table 8.

The subject of data set [2] is PAM1154/KPC-2 (lacked MexAB-OprM). As to the kind of experiment: Biapenem potentiation (MPC64) in PAM1154/KPC-2. The data set is classed as cell-based, Pseudomonas aeruginosa. Further details: PAM1154/KPC-2 Biapenem MPC64: unit not given here. The note with it: BLI potency to decrease biapenem MIC 64-fold, from 32 to 0.5 μg/ml; efflux deficient strain. The procedure: as §3

Data set [3] is described as follows: Stability of compound 13 prodrugs in human liver microsomes (HLM). The data set is classed as in vitro ADME. The note with it: 0.500 mg/mL human liver microsomes, no cofactors, prodrug 1.00 μM; for half-life at 1 μM: pH 7.4, read-out: Estimated half-life (minutes) (rounded to nearest integer value). The procedure: In the meantime, a 20.0 mg/mL solution of human liver microsomes (XenoTech, LLC) was diluted to 1.00 mg/mL (2× final concentration). Esterase activity for each lot of microsomes used was established by assaying an unrelated ester prodrug as a control. Both the Eppendorfs for each timepoint and the diluted liver microsomes were then warmed to 37° C. in a water bath. No cofactors (e.g. NADPH) were added to ensure that only hydrolytic reactions as opposed to reactions mediated by other cofactor-dependent enzymes (e.g. CYP450 enzymes) would take place. To initiate the reaction, 50 μL of diluted human liver microsomes was added to tubes for all timepoints using a repeating-tip pipette, thereby bringing the final concentration of test compound to 1.00 μM and the final concentration of human liver microsomes to 0.500 mg/mL. At each timepoint, the reaction was halted and proteins precipitated through the addition of 200 μL of 10:45:45 water:methanol:acetonitrile v/v/v containing an unrelated ester prodrug at 250 ng/mL as an internal standard. […] Sample analysis for microsome stability experiments was conducted using a 20.0 μL injection on a LEAP PAL autosampler with Agilent 1100 binary pump HPLC coupled to an AB Sciex 3200 QTrap mass spectrometer. […] Detection was in positive mode; source parameters and parent-daughter ion selection criteria were chosen as needed for each compound to achieve an appropriate limit of detection and signal-to-noise ratio. The samples were analyzed together with appropriate blanks in order to ensure specificity. The rate of hydrolysis for each prodrug was determined by monitoring the concentration of test compound as follows. The peak area for the analyte was divided by the peak area for the internal standard to give an area ratio. The area ratio for each of the two replicates at each timepoint was divided by the area ratio for timepoint 0 to give the percent remaining at each timepoint. The natural logarithm of the percent remaining versus time for all replicates was plotted using Microsoft Excel and fitted to a linear trendline.

[4] abbreviates: nitrocefin reporter substrate, 10 min preincubation at room temperature, read-out: Ki (Pa-AmpC, NCF).

Where two headings read alike, the source gives them in different places.

Chain of CTX-M-14 (Q9L5C7 29-291, species assumed): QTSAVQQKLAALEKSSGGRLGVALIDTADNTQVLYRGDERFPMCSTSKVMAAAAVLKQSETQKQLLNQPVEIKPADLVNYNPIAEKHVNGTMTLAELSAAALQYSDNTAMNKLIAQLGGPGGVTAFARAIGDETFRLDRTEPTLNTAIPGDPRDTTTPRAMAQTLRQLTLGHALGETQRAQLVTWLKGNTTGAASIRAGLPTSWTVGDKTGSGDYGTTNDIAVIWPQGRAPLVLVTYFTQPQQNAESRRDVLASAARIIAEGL
Chain of OXA-23 (Q9L4P2 18-273): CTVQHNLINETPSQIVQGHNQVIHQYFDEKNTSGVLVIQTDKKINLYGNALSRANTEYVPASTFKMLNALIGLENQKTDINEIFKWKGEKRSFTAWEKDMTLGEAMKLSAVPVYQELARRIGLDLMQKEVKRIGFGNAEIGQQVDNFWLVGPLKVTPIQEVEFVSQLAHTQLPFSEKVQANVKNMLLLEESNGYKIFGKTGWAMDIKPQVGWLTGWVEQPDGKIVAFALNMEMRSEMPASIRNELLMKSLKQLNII
Chain of Pa-AmpC (P24735 27-397): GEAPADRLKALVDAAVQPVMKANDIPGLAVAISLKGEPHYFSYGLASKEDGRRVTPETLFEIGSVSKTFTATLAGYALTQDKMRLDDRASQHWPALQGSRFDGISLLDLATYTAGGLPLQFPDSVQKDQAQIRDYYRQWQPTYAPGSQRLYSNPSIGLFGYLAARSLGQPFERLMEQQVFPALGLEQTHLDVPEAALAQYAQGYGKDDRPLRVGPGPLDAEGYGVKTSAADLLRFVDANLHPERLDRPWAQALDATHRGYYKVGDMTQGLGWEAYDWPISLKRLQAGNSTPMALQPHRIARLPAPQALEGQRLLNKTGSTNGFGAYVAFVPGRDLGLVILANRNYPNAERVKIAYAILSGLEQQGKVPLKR
Chain of P99 (P05364 21-381): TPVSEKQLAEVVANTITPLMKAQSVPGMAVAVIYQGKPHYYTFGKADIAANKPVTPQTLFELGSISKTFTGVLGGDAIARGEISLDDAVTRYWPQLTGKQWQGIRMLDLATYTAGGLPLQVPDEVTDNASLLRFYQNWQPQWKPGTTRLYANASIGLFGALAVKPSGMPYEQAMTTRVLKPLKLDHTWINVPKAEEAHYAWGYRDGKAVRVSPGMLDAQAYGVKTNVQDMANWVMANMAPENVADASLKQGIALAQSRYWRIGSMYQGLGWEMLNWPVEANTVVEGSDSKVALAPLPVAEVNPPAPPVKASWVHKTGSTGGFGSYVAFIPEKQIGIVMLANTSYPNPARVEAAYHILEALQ
Chain of IMP-1 (P52699 19-246, looked up, species assumed): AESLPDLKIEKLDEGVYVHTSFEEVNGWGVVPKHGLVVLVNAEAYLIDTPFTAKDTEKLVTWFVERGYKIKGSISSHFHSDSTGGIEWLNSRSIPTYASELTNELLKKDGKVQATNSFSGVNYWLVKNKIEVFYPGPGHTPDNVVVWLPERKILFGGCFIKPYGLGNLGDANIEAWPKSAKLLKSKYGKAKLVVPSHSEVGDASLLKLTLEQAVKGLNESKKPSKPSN
Chain of KPC-2 (Q9F663 25-293 limits assumed): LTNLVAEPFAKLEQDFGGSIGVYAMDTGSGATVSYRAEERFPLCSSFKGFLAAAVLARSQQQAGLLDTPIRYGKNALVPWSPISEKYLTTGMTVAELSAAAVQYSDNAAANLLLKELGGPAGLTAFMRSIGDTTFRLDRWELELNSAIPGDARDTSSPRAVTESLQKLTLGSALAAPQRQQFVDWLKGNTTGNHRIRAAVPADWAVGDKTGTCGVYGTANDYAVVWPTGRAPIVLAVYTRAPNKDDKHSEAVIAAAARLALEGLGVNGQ
Chain of OXA-48 (Q6XEC0 23-265, looked up): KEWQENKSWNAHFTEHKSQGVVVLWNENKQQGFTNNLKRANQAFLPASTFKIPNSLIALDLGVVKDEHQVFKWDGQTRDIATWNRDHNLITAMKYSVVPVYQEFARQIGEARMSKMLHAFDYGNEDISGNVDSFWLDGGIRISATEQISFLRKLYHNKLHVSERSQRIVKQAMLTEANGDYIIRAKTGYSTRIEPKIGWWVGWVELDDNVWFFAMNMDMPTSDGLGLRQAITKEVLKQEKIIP

Take `O=C(O)[C@H]1/C(=C/CO)O[C@@H]2CC(=O)N21` [Clavulanic Acid, reference compound]: the Ki was below 100 nM at CTX-M-14; above 1000 nM on KPC-2; above 1000 nM on Pa-AmpC; above 1000 nM on OXA-48; above 1000 nM on OXA-23; above 1000 nM at VIM-1. For the same compound, the Ki on NDM-1 and on IMP-1 was above 1000 nM in each case.

For `O=C(O)c1c(F)ccc2c1OB(O)C1CC21` (stereo not drawn) [Compound 4, 5-Fluoro-2-hydroxy-1a,7b-dihydro-1H-cyclopropa[c][1,2]benzoxaborinine-4-carboxylic acid], the Ki at CTX-M-14, on KPC-2, on P99, at Pa-AmpC (setting [4]), on OXA-48 and on OXA-23 was below 100 nM in each case. The Ki was 100 to 1000 nM at VIM-1 and above 1000 nM at IMP-1. Besides, the “PAM1032/KPC-2 Biapenem MPC64” value in data set [1] amounted to 2.5. The “PAM1154/KPC-2 Biapenem MPC64” value in data set [2] amounted to 2.5.

As to `COc1ccc2c(c1C(=O)O)OB(O)C(F)=C2` [Compound 8, 3-Fluoro-2-hydroxy-7-methoxy-1,2-benzoxaborinine-8-carboxylic acid], the Ki at CTX-M-14, on KPC-2, at P99, on Pa-AmpC (setting [4]), on OXA-48 and on OXA-23 was below 100 nM throughout. Moreover, the values for the Ki at VIM-1 and on IMP-1 were 100 to 1000 nM and above 1000 nM, respectively. In addition, in [1], the “PAM1032/KPC-2 Biapenem MPC64” value amounted to 2.5. The “PAM1154/KPC-2 Biapenem MPC64” value in data set [2] was 2.5.

In the case of `O=C(O)c1nccc2c1OB(O)[C@H]1C[C@@H]21` [Compound 20, (1aS,7bR)-2-hydroxy-1a,7b-dihydro-1H-cyclopropa[6,7]oxaborinino[2,3-c]pyridine-4-carboxylic acid], the Ki on CTX-M-14 is below 100 nM; at KPC-2, 100 to 1000 nM; on P99, above 1000 nM; on Pa-AmpC (setting [4]), above 1000 nM; at OXA-48, below 100 nM; at OXA-23, 100 to 1000 nM. Also, the Ki on VIM-1 and at NDM-1 was above 1000 nM each time. Further, the “PAM1032/KPC-2 Biapenem MPC64” value in data set [1] worked out at 5. In data set [2], the “PAM1154/KPC-2 Biapenem MPC64” value came out at 5.

As to `O=C(O)c1nccc2c1OB(O)[C@@H]1C[C@H]21` [Compound 21, (1aR,7bS)-2-hydroxy-1a,7b-dihydro-1H-cyclopropa[6,7]oxaborinino[2,3-c]pyridine-4-carboxylic acid], the Ki was below 100 nM at CTX-M-14; 100 to 1000 nM on KPC-2; 100 to 1000 nM at P99; above 1000 nM at Pa-AmpC (setting [4]); below 100 nM on OXA-48; below 100 nM at OXA-23. The Ki on VIM-1 and on NDM-1 was 100 to 1000 nM each time. Besides, in [1], the “PAM1032/KPC-2 Biapenem MPC64” value was determined as 1.25. The “PAM1154/KPC-2 Biapenem MPC64” value in [2] is listed as 1.25.

With `COc1ccc2c(c1C(=O)O)OB(O)C1=C2COC1` [Compound 24, 4,4-dihydroxy-7-methoxy-1,3-dihydrofuro[3,4-c][1,2]benzoxaborinine-6-carboxylic acid], the Ki on CTX-M-14, at KPC-2, on P99, at Pa-AmpC (setting [4]), at OXA-48 and on OXA-23 was below 100 nM each time. The Ki was above 1000 nM at VIM-1, 100 to 1000 nM at NDM-1 and above 1000 nM on IMP-1.

As for `CCCC(=O)OCOC(=O)c1c(F)ccc2c1OB(O)[C@@H]1C[C@H]21` [Compound 26, Butanoyloxymethyl (1aR,7bS)-5-fluoro-2-hydroxy-1a,7b-dihydro-1H-cyclopropa[c][1,2]benzoxaborinine-4-carboxylate], in data set [3], the “Average % of initial area ratio at t = 0 min” value was determined as 100%, the “Average % of initial area ratio at t = 5 min” value came to 73.4%, the “Average % of initial area ratio at t = 10 min” value is reported as 55.9% and the “Average % of initial area ratio at t = 30 min” value amounted to 11.9%. In addition, the half-life at 1 μM in data set [3] was 10 min.

Turning to `O=C(OCOC(=O)C1CC1)c1c(F)ccc2c1OB(O)[C@@H]1C[C@H]21` [Compound 27], in data set [3], the “Average % of initial area ratio at t = 0 min” value came out at 100%, the “Average % of initial area ratio at t = 5 min” value was found to be 91.4%, the “Average % of initial area ratio at t = 10 min” value is 80.4% and the “Average % of initial area ratio at t = 30 min” value is 25.0%. The half-life at 1 μM in data set [3] was 14 min.

Consider `CC(=O)OCOC(=O)c1c(F)ccc2c1OB(O)[C@@H]1C[C@H]21` [Compound 28, Acetoxymethyl (1aR,7bS)-5-fluoro-2-hydroxy-1a,7b-dihydro-1H-cyclopropa[c][1,2]benzoxaborinine-4-carboxylate], for which, in [3], the “Average % of initial area ratio at t = 0 min” value was 100%, the “Average % of initial area ratio at t = 5 min” value worked out at 50.8%, the “Average % of initial area ratio at t = 10 min” value stood at 23.3% and the “Average % of initial area ratio at t = 30 min” value was determined as 19.6%. In addition, the half-life at 1 μM in data set [3] was 15 min.

As to `C[C@]1(Cn2ccnn2)[C@H](C(=O)O)N2C(=O)C[C@H]2S1(=O)=O` [Tazobactam, reference compound], the Ki at KPC-2 is above 1000 nM; at OXA-48 it was 100 to 1000 nM; on OXA-23 it was 100 to 1000 nM; at VIM-1, above 1000 nM; at NDM-1, above 1000 nM; on IMP-1 it was above 1000 nM.
